Assay results as given in patent US20100152213A1, “COMPOUND THAT IS A DUAL INHIBITOR OF ENZYMES PDE7 AND/OR PDE4, PHARMACEUTICAL COMPOSITIONS AND USES THEREOF” (priority 2007, published 2010).
Where two headings read alike, the source gives them in different places.

Columns and labels:
[1] = biological target: T1, catalytic domain of PDE7A1 (aa. 130-482) (Homo sapiens, UniProt Q13946); test: PDE inhibitor test, PDE7A1 (3H-cAMP hydrolysis); format: biochemical; settings: substrate at 1/10 of KM; six inhibitor concentrations; duplicate; read-out: Inhibitor data of PDE7A1 (CI50)
T1 construct: The catalytic domain of PDE7A1 (aá. 130-482); made in house; host or cells: E. coli BL21

[2] = system: clone of Th2 lymphocytes (D10.G4.1)
Method: Cell toxicity tests were carried out on a clone of Th2 lymphocytes (D10.G4.1) through flow cytometry using Propidium Iodide in order to determine cell death.
After this time, the cells were washed and incubated with 5 μg/ml of Propidium Iodide during 1 min. The samples treated in this way were analysed by cytometry using BD FACSCanto™ equipment.

[3] = biological target: T2, complete enzyme of PDE4D2 (aa. 1-507) (Homo sapiens, UniProt Q08499); test: PDE inhibitor test, PDE4D2 (3H-cAMP hydrolysis); format: biochemical; settings: substrate at 1/10 of KM; six inhibitor concentrations; duplicate; read-out: Inhibitor data of PDE4D2 (CI50)
T2 construct: the complete enzyme of PDE4D2 (aa. 1-507); made in house; host or cells: E. coli BL21
Method: The catalytic domain of PDE7A1 (aá. 130-482) and the complete enzyme of PDE4D2 (aa. 1-507) were subcloned in pET vectors, overexpressed in E. coli strain BL21, and purified to homogeneity as described in the bibliography (Wang, H., Liu, Y., Chen, Y., Robinson, H., and Ke, H. Multiple elements jointly determine inhibitor selectivity of cyclic nucleotide phosphodiesterases 4 and 7. J. Biol. Chem. 2005, 280, 30949-30955). The enzymatic activities of PDE7A1 and PDE4D2 were tested through incubation of the enzymes with 100 μL of a reaction mixture that contained 50 mM Tris.HCl (pH 8.5), 50 mM MgCl2, 5 mM DTT, and ^3H-cAMP (20000 cpm per test, Sigma-Aldrich) at room temperature during 10 minutes. The reactions were concluded by adding 200 μL 0.2 M ZnSO4 when 20-50% of the cAMP was hydrolysed. The product of the reaction, ^3H-AMP, was precipitated by adding 200 μL 0.25 M Ba(OH)2 (Sigma-Aldrich), while the unreacted ^3H-AMPc remained in the supernatant. Radioactivity of the supernatant was measured with a mixture of scintillation liquid (ScintiSafe PlusTM 50%, Fisher Scientific) using the counter LKB RackBeta 1214.
For inhibitor measurements, six concentrations of inhibitors were used in the presence of a substrate concentration equivalent to 1/10 of the KM and the enzyme concentration that hydrolyses 50% of the substrate. […] All experiments were carried out in duplicate.

T-lymphocytes = test: Study of intracellular cAMP levels (cAMP Biotrak Enzymeimmunoassay); format: cell-based; settings: inhibitor alone (FIG. 5)
Method: PDE inhibition has the direct effect of increasing cAMP, since their degradation is prevented. In order to verify this effect on the cell system of T-lymphocytes two compounds of formula (I) of the invention were chosen, specifically: TC 3.6 and TC 3.14 and cAMP concentration was measured using the cAMP Biotrak Enzymeimmunoassay System of Amersham Biosciences kit.

[4] = D10.G4.1 cells, 1×10^6 cells/ml, 48 h

T1 sequence (Q13946 130-482): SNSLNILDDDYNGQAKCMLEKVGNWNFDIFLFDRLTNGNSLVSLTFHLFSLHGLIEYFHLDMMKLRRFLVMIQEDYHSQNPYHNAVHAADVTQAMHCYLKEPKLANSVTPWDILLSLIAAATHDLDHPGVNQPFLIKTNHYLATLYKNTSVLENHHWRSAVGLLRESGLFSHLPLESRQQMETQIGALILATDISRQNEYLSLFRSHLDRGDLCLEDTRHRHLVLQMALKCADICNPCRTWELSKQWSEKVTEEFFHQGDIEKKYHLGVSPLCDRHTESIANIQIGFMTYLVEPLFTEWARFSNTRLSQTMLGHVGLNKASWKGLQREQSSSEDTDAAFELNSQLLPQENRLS
T2 sequence (Q08499 303-809): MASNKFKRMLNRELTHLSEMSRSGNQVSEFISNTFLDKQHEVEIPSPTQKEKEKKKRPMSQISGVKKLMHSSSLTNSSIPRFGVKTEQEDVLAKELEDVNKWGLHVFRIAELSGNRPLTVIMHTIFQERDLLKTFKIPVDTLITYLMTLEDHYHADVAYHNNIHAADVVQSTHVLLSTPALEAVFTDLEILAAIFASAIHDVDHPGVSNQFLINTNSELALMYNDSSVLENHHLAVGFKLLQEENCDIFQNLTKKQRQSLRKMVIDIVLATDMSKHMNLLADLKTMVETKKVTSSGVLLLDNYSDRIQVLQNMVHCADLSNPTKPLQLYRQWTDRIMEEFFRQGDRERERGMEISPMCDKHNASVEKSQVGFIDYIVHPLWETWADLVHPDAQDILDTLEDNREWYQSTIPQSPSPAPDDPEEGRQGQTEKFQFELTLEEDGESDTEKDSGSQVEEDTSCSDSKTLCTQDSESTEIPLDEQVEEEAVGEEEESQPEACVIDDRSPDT

## Cc1cccc2c(=O)n(-c3c(F)cccc3F)c(=S)[nH]c12 [TC3.16, 3-(2,6-Difluorophenyl)-8-methyl-4-oxo-2-thioxo-1,2,3,4-tetrahydroquinazoline]
[1]
  IC50: > 1 µM

## CSc1nc2ccccc2c(=S)n1-c1ccccc1 [TC3.9, 3-Phenyl-2-methylthio-4-thioxo-3,4-dihydroquinazoline]
[1]
  IC50: 0.84 ± 0.01 µM
[2]; mouse, 48 h
  maximum concentration at which more than 80% cellular viability was maintained in comparison to the control of cells without inhibitor: 100 µM
[3]
  IC50: 8 ± 1.2 µM

## 3-(2,6-difluorophenyl)-2-methylthio-4-thioxo-3,4-dihydroquinazoline [TC2.43]
[2]; [4]
  maximum concentration at which more than 80% cellular viability was maintained in comparison to the control of cells without inhibitor: 5 µM

## CSc1nc2c(C)cccc2c(=O)n1-c1c(F)cccc1F [TC3.23, 3-(2,6-Difluorophenyl)-8-methyl-2-methylthio-4-oxo-3,4-dihydroquinazoline]
[1]
  IC50: 0.13 ± 0.02 µM
[2]; mouse, 48 h
  maximum concentration at which more than 80% cellular viability was maintained in comparison to the control of cells without inhibitor: 10 µM
[3]
  IC50: 1.4 ± 0.2 µM

## CSc1nc2c(C)cccc2c(=O)n1-c1ccccc1Br [TC3.22, 3-(2-Bromophenyl)-8-methyl-2-methylthio-4-oxo-3,4-dihydroquinazoline]
[1]
  IC50: 0.27 ± 0.02 µM
[2]; mouse, 48 h
  maximum concentration at which more than 80% cellular viability was maintained in comparison to the control of cells without inhibitor: 5 µM
[3]
  IC50: 1.1 ± 0.2 µM

## Fc1ccc(-n2c(=S)[nH]c3ccccc3c2=S)c(F)c1F [TC2.45, 3-(2,3,4-Trifluorophenyl)-2,4-dithioxo-1,2,3,4-tetrahydroquinazoline]
[1]
  IC50: > 1 µM

## CSc1nc2ccc(Br)cc2c(=O)n1-c1ccccc1 [TC3.47A, 6-Bromo-3-phenyl-2-methylthio-4-oxo-3,4-dihydroquinazoline]
[1]
  IC50: > 1 µM

## O=c1c2cc(Br)ccc2[nH]c(=S)n1-c1ccccc1 [TC2.30A, 6-Bromo-3-phenyl-4-oxo-2-thioxo-1,2,3,4-tetrahydroquinazoline]
[1]
  IC50: > 10 µM

## CSc1nc2c(C)cccc2c(=O)n1-c1ccc(F)c(F)c1F [TC3.24, 3-(2,3,4-Trifluorophenyl)-8-methyl-2-methylthio-4-oxo-3,4-dihydroquinazoline]
[1]
  IC50: > 1 µM

## CSc1nc2ccc(Br)cc2c(=O)n1-c1ccc(F)c(F)c1F [TC3.32, 6-Bromo-3-(2,3,4-trifluorophenyl)-2-methylthio-4-oxo-3,4-dihydroquinazoline]
[1]
  IC50: 2.1 ± 0.1 µM
[2]; mouse, 48 h
  maximum concentration at which more than 80% cellular viability was maintained in comparison to the control of cells without inhibitor: 100 µM

## COc1ccc(C2CNC(=O)C2)cc1OC1CCCC1 (stereo not drawn) [Rolipram, reference compound]
[2]; [4]
  maximum concentration at which more than 80% cellular viability was maintained in comparison to the control of cells without inhibitor: >1000 µM

## CSc1nc2ccccc2c(=S)n1-c1ccc(F)c(F)c1F [TC2.51, 3-(2,3,4-trifluorophenyl)-2-methylthio-4-thioxo-3,4-dihydroquinazoline]
[1]
  IC50: > 1 µM

## CSc1nc2c(C)cccc2c(=O)n1-c1ccccc1 [TC3.15b, 3-Phenyl-8-methyl-2-methylthio-4-oxo-3,4-dihydroquinazoline]
[1]
  IC50: ~1 µM
[2]
  cell toxicity (in words): most moderate toxicity
[2]; mouse, 48 h
  maximum concentration at which more than 80% cellular viability was maintained in comparison to the control of cells without inhibitor: 600 µM

## Cc1cccc2c(=O)n(-c3ccccc3Br)c(=S)[nH]c12 [TC3.14, 3-(2-Bromophenyl)-8-methyl-4-oxo-2-thioxo-1,2,3,4-tetrahydroquinazoline]
[1]
  IC50: 1.7 ± 0.1 µM
[2]
  cell toxicity (in words): most moderate toxicity
[2]; mouse, 48 h
  maximum concentration at which more than 80% cellular viability was maintained in comparison to the control of cells without inhibitor: 600 µM
T-lymphocytes
  amount of intracellular cAMP in relation to the control: increased in a statistically significant manner
[3]
  IC50: 34 ± 5 µM

## O=c1c2cc(Br)ccc2[nH]c(=S)n1-c1ccccc1Br [TC3.28, 6-Bromo-3-(2-bromophenyl)-4-oxo-2-thioxo-1,2,3,4-tetrahydroquinazoline]
[1]
  IC50: ~10 µM

## CSc1nc2ccccc2c(=S)n1-c1ccccc1Br [TC3.13, 3-(2-bromophenyl)-2-methylthio-4-thioxo-3,4-dihydroquinazoline]
[1]
  IC50: 0.1 to 1 µM
[2]; mouse, 48 h
  maximum concentration at which more than 80% cellular viability was maintained in comparison to the control of cells without inhibitor: 10 µM

## O=c1c2cc(Br)ccc2[nH]c(=S)n1-c1ccc(F)c(F)c1F [TC3.30, 6-Bromo-3-(2,3,4-trifluorophenyl)-4-oxo-2-thioxo-1,2,3,4-tetrahydroquinazoline]
[1]
  IC50: > 10 µM

## CSc1nc2ccc(Br)cc2c(=O)n1-c1ccccc1Br [TC3.35, 6-Bromo-3-(2-bromophenyl)-2-methylthio-4-oxo-3,4-dihydroquinazoline]
[1]
  IC50: 1.86 ± 0.18 µM
[2]; mouse, 48 h
  maximum concentration at which more than 80% cellular viability was maintained in comparison to the control of cells without inhibitor: 10 µM

## Cc1ccc([N+](=O)[O-])cc1S(=O)(=O)N(C)C [BRL50481, 3-(N,N-dimethylsulfonamide)-4-methyl-nitrobenzene, reference compound]
[2]; [4]
  maximum concentration at which more than 80% cellular viability was maintained in comparison to the control of cells without inhibitor: >1000 µM

## CSc1nc2ccc(Br)cc2c(=O)n1-c1c(F)cccc1F [TC3.36, 6-Bromo-3-(2,6-difluorophenyl)-2-methylthio-4-oxo-3,4-dihydroquinazoline]
[1]
  IC50: 0.24 ± 0.03 µM
[2]; mouse, 48 h
  maximum concentration at which more than 80% cellular viability was maintained in comparison to the control of cells without inhibitor: 10 µM
[3]
  IC50: 4.5 ± 0.1 µM

## S=c1[nH]c2ccccc2c(=S)n1-c1ccccc1 [TC3.6, 3-Phenyl-2,4-dithioxo-1,2,3,4-tetrahydroquinazoline]
[1]
  IC50: 1.04 ± 0.08 µM
[2]; D10.G4.1 cells, 48 h, among the compounds of new synthesis
  cell toxicity (in words): most moderate toxicity
[2]; mouse, 48 h
  maximum concentration at which more than 80% cellular viability was maintained in comparison to the control of cells without inhibitor: 1000 µM
T-lymphocytes
  amount of intracellular cAMP in relation to the control: increased in a statistically significant manner
[3]
  IC50: 5.7 ± 0.03 µM

## O=c1c2cc(Br)ccc2[nH]c(=S)n1-c1c(F)cccc1F [TC3.29, 6-Bromo-3-(2,6-difluorophenyl)-4-oxo-2-thioxo-1,2,3,4-tetrahydroquinazoline]
[1]
  IC50: > 10 µM

## Cc1cccc2c(=O)n(-c3ccc(F)c(F)c3F)c(=S)[nH]c12 [TC3.17, 3-(2,3,4-Trifluorophenyl)-8-methyl-4-oxo-2-thioxo-1,2,3,4-tetrahydroquinazoline]
[1]
  IC50: > 10 µM

## CSc1nc2ccccc2c(=S)n1-c1c(F)cccc1F [TC3.1, 3-(2,6-difluorophenyl)-2-methylthio-4-thioxo-3,4-dihydroquinazoline]
[1]
  IC50: 0.1 to 1 µM
[2]; mouse, 48 h
  maximum concentration at which more than 80% cellular viability was maintained in comparison to the control of cells without inhibitor: 10 µM

## Fc1cccc(F)c1-n1c(=S)[nH]c2ccccc2c1=S [TC2.49, 3-(2,6-Difluorophenyl)-2,4-dithioxo-1,2,3,4-tetrahydroquinazoline]
[1]
  IC50: ~1 µM
[2]; mouse, 48 h
  maximum concentration at which more than 80% cellular viability was maintained in comparison to the control of cells without inhibitor: 50 µM
